Data set [1] has as its system tyrosine hydroxylase (TH) protein in the locus coeruleus (LC). The data set can be described thus: Induction of tyrosine hydroxylase in the locus coeruleus after a single i.p. injection. Format: in vivo. To be noted: three days after injection, Balb/C mouse; for amount of TH in LC section 1, % relative to the mean value of the control group: LC section 1 (anterior-to-posterior), i.p. 20 mg/kg; for amount of TH in LC section 2, % relative to the mean value of the control group: LC section 2, i.p. 20 mg/kg; for amount of TH in LC section 3, % relative to the mean value of the control group: LC section 3, i.p. 20 mg/kg; for amount of TH in LC section 4, % relative to the mean value of the control group: LC section 4, i.p. 20 mg/kg; for amount of TH in LC section 5, % relative to the mean value of the control group: LC section 5, i.p. 20 mg/kg; for amount of TH in LC section 6, % relative to the mean value of the control group: LC section 6, i.p. 20 mg/kg; for amount of TH in LC section 7, % relative to the mean value of the control group: LC section 7, i.p. 20 mg/kg; for amount of TH in LC section 8, % relative to the mean value of the control group: LC section 8, i.p. 20 mg/kg. An excerpt:
An investigation is made, among the compounds, for the capability of bringing about an increase in the tyrosine hydroxylase (TH) protein in the locus coeruleus (LC) of the brain of the Balb/C mouse.
The animals used are male mice of the pure Balb/C strain (Charles River Laboratories) aged 7 to 8 weeks at the time of treatment.
The mice are given a single injection, by the intraperitoneal route, of the compound under test, dissolved in 0.04M HCl solution (corresponding control: […]), if the compound is sufficiently soluble, or in olive oil 90%/DMSO 10% (corresponding control: olive oil 90%/DMSO 10%) for compounds that are insoluble in an aqueous medium.
Three days after the injection of each compound, all the animals are sacrificed by decapitation. The extracted brains are then frozen in liquid nitrogen and stored at −80° C.
Coronal sections 8 microns thick are then taken along the posterior-anterior axis of the LC and fixed. The sections are transferred onto Immobilon-P membranes. The TH is measured by immunodetection and image analysis.

Data set [2] concerns the target 5HT receptors (type 5HT2A) (Homo sapiens, UniProt P28223). Briefly: Affinity for receptors, displacement of labelled specific ligand: 5HT2A. Format: binding. An excerpt:
The receptor affinity was accordingly studied for 28 conventional receptors.

For data set [3] the following is noted: compound 10^−7M, NADPH, 0-60 minutes; for % metabolic stability predicted using hepatic microsomes, Human: human hepatic microsomes 0.33 mg of prot/ml; for % metabolic stability predicted using hepatic microsomes, Mouse: mouse hepatic microsomes 0.33 mg of prot/ml; for % metabolic stability predicted using hepatic microsomes, Rat: rat hepatic microsomes 0.33 mg of prot/ml. As for the experimental part:
The predicted metabolic stability is tested by incubation of the compounds at a concentration of 10^−7M in the presence of mouse, rat or human hepatic microsomes (0.33 mg of prot/ml). After addition of NADPH (nicotinamide adenine dinucleotide phosphate, reduced form), samples are taken at 0, 5, 15, 30 and 60 minutes. The enzymatic reaction is stopped using methanol (V/V). The protein is precipitated by centrifugation and the supernatant is analysed by LC-MS-MS.

For orientation: melting point means the temperature, or range, at which the solid turns liquid.

Chain of 5HT receptors (type 5HT2A) (P28223 whole entry): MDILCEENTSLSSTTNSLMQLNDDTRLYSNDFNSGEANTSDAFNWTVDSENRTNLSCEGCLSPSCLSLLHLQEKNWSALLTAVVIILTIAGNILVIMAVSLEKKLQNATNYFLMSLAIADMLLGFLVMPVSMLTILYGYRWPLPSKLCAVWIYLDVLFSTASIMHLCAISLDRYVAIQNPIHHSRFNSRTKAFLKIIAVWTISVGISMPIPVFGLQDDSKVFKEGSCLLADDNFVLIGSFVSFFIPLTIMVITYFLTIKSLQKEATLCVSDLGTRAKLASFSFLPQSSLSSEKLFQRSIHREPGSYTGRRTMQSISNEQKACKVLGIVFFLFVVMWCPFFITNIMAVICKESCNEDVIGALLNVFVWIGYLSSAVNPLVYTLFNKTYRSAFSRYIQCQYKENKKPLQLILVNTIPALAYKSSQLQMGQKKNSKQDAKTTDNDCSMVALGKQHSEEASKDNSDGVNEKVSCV

`O=C1NCN2c3ccc(Cl)cc3[C@H]3CCN4CCC[C@H]1[C@H]4[C@H]32` (racemic) [Example 1, (5aRS,12aSR,12bSR,12cSR)-7-Chloro-2,3,4,5,5a,10,11,12a,12b,12c-decahydro-1H,12H-3a,9b,11-triazabenzo[a]naphtho[2,1,8-cde]azulen-12-one]: the melting point is > 250 °C.

Consider `O=C1NC(=O)n2c3c(c4cc(Cl)ccc42)CCN2CCCC1C32` (racemic) [Example 3, (12aRS,12bRS)-7-Chloro-2,3,12a,12b-tetrahydro-4H,4H-3a,9b,11-triazabenzo[a]naphtho[2,1,8-cde]azulene-10,12(5H,11H)-dione], for which, in data set [1], the “amount of TH in LC section 1, % relative to the mean value of the control group” value is listed as 55%; the “amount of TH in LC section 2, % relative to the mean value of the control group” value came to 58%; the “amount of TH in LC section 3, % relative to the mean value of the control group” value amounted to 47%; the “amount of TH in LC section 4, % relative to the mean value of the control group” value was 48%. Also, in data set [1], the “amount of TH in LC section 5, % relative to the mean value of the control group” value is 33%; the “amount of TH in LC section 6, % relative to the mean value of the control group” value is recorded as 19%; the “amount of TH in LC section 7, % relative to the mean value of the control group” value is given as 5%; the “amount of TH in LC section 8, % relative to the mean value of the control group” value is 3%.

Consider `O=C1NC(=O)N2c3ccccc3[C@H]3CCN4CCC[C@H]1[C@H]4[C@H]32` (racemic) [Example 4, (5aRS,12aSR,12bSR,12cSR)-2,3,5a,12a,12b,12c-Hexahydro-1H,4H-3a,9b,11-triazabenzo[a]naphtho[2,1,8-cde]azulene-10,12(5H,11H)-dione], for which the melting point amounted to 255 °C. In data set [1], the “amount of TH in LC section 1, % relative to the mean value of the control group” value was 88%; the “amount of TH in LC section 2, % relative to the mean value of the control group” value amounted to 78%; the “amount of TH in LC section 3, % relative to the mean value of the control group” value came out at 70%; the “amount of TH in LC section 4, % relative to the mean value of the control group” value was found to be 58%. In addition, in data set [1], the “amount of TH in LC section 5, % relative to the mean value of the control group” value stood at 27%; the “amount of TH in LC section 6, % relative to the mean value of the control group” value came out at 14%; the “amount of TH in LC section 7, % relative to the mean value of the control group” value came to 9%; the “amount of TH in LC section 8, % relative to the mean value of the control group” value was 3%.

With `O=C1NC(=O)n2c3c(c4ccccc42)CCN2CCCC1C32` (racemic) [Example 7, (12aRS,12bRS)-2,3,12a,12b-Tetrahydro-1H,4H-3a,9b,11-triazabenzo[a]naphtho[2,1,8-cde]azulene-10,12(5H,11H)-dione], the “% inhibition 5HT2A” value in data set [2] (concentration 10^−5 M) is given as 96%. In addition, the “% inhibition 5HT2A” value in data set [2] (concentration 10^−7 M) is 34%. Also, in data set [1], the “amount of TH in LC section 1, % relative to the mean value of the control group” value is given as 63%; the “amount of TH in LC section 2, % relative to the mean value of the control group” value is 67%; the “amount of TH in LC section 3, % relative to the mean value of the control group” value came to 48%; the “amount of TH in LC section 4, % relative to the mean value of the control group” value came out at 47%. Moreover, in data set [1], the “amount of TH in LC section 5, % relative to the mean value of the control group” value is recorded as 43%; the “amount of TH in LC section 6, % relative to the mean value of the control group” value is recorded as 23%; the “amount of TH in LC section 7, % relative to the mean value of the control group” value was 7%; the “amount of TH in LC section 8, % relative to the mean value of the control group” value amounted to 6%.

For the molecule `O=C1NC(=O)N2c3ccccc3C3CCN4CCCC1C4C32` (single isomer, unassigned) [Example 5, (5aS,12aR,12bR,12cR)— or (5aR,12aS,12bS,12cS)-2,3,5a,12a,12b,12c-Hexahydro-1H,4H-3a,9b,11-triazabenzo[a]naphtho[2,1,8-cde]azulene-10,12(5H,11H)-dione (enantiomer α)], in data set [3], the “% metabolic stability predicted using hepatic microsomes, Human” value was 75%; the “% metabolic stability predicted using hepatic microsomes, Mouse” value is reported as 100%; the “% metabolic stability predicted using hepatic microsomes, Rat” value is 90%.

As for `O=C1NC(=O)N2c3ccccc3C3CCN4CCCC1C4C32` (single isomer, unassigned) [Example 6, (5aS,12aR,12bR,12cR)— or (5aR,12aS,12bS,12cS)-2,3,5a,12a,12b,12c-Hexahydro-1H,4H-3a,9b,11-triazabenzo[a]naphtho[2,1,8-cde]azulene-10,12(5H,11H)-dione (enantiomer β)], in data set [3], the “% metabolic stability predicted using hepatic microsomes, Human” value is 71%; the “% metabolic stability predicted using hepatic microsomes, Mouse” value is recorded as 100%; the “% metabolic stability predicted using hepatic microsomes, Rat” value was 76%.

For the molecule “(5aRS,12aSR,12bSR,12cSR)-7-Chloro-2,3,5a,12a,12b,12c-hexahydro-1H,4H-3a,9b,1′-triazabenzo[a]naphtho[2,1,8-cde]azulene-10,12(5H,11H)-dione [Example 2]”, in data set [1], the “amount of TH in LC section 1, % relative to the mean value of the control group” value is listed as 53%; the “amount of TH in LC section 2, % relative to the mean value of the control group” value was determined as 54%; the “amount of TH in LC section 3, % relative to the mean value of the control group” value amounted to 46%; the “amount of TH in LC section 4, % relative to the mean value of the control group” value came out at 35%. In addition, in data set [1], the “amount of TH in LC section 5, % relative to the mean value of the control group” value was found to be 25%; the “amount of TH in LC section 6, % relative to the mean value of the control group” value is 14%; the “amount of TH in LC section 7, % relative to the mean value of the control group” value turned out to be 5%; the “amount of TH in LC section 8, % relative to the mean value of the control group” value amounted to 3%.
